Experimental data published in patent US12071453B2, “Neuroactive steroids, compositions, and uses thereof” (Sage Therapeutics, Inc., priority 2013, dated 2024).

Legend:
[1] = target: T1, GABAA receptors composed of the α1β2γ2 subunits (GABRA1/GABRB2/GABRG2) (Homo sapiens, UniProt P14867+P47870); assay: Two Electrode Voltage Clamp (TEVC), GABA receptor potentiation in Xenopus laevis oocytes, α1β2γ2; assay type: cell-based; settings: 10 μM compound, 10 μM GABA, read-out: GABA (α1β2γ2) % efficacy at 10 μM
T1 construct: expressed in transfected cells; host or cells: Xenopus laevis oocytes, injected (ratio 1:1:1)
T1 sequence (P14867 28-456): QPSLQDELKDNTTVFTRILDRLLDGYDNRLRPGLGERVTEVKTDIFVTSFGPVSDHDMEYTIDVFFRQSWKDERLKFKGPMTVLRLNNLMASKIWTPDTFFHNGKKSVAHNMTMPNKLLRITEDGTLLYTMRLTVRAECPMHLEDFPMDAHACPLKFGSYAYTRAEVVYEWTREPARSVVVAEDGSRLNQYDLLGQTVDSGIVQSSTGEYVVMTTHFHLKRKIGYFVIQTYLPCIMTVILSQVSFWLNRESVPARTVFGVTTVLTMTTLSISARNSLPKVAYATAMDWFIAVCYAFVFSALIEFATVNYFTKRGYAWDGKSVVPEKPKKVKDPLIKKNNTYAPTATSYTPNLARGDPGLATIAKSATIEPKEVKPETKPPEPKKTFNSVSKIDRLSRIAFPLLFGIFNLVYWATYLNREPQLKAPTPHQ
T1 sequence (P47870 26-512): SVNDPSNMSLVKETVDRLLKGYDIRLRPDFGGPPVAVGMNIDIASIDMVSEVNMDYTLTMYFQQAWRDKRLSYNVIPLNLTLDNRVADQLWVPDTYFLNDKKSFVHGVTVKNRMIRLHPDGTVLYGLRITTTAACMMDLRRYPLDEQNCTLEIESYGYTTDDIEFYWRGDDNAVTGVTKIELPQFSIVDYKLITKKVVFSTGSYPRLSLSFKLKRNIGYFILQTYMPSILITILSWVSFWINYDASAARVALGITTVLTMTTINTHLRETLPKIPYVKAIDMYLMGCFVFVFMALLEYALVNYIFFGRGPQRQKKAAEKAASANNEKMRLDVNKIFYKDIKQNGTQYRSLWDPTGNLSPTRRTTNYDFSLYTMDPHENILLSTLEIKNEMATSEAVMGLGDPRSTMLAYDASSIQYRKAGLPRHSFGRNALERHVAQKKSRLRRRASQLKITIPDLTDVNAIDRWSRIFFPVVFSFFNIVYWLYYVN
T1 sequence (P18507 40-475 partner): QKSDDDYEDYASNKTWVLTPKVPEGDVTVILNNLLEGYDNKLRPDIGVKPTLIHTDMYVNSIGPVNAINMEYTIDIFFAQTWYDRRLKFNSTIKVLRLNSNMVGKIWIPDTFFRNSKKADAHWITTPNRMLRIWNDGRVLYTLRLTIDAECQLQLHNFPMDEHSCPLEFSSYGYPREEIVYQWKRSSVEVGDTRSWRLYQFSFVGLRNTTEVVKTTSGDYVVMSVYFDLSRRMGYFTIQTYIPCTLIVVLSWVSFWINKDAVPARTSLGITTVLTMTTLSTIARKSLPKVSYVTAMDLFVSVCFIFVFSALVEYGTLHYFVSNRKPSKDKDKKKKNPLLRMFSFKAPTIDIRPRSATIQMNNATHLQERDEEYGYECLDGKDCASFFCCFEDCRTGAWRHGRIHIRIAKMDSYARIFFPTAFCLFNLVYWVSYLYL
Procedure: The Two Electrode Voltage Clamp (TEVC) technique was used to investigate the effects of compounds at a concentration of 10 μM on GABAA receptors composed of the α1β2γ2 or α4β3δ subunits expressed in oocytes from the Xenopus laevis. GABA-evoked currents were recorded from oocytes that expressed the GABA receptors and the modulatory effects of the test items on these currents were investigated.
Ovaries were harvested from Xenopus laevis females that had been deeply anesthetized by cooling at 4° C. and immersion in Tricaine methanesulfonate (MS-222 at a concentration of 150 mg/L) in sodium bicarbonate (300 mg/L). Once anesthetized the animal was decapitated and pithed following the rules of animal rights from the Geneva canton. A small piece of ovary was isolated for immediate preparation while the remaining part was placed at 4° C. in a sterile Barth solution containing in mM NaCl 88, KCl 1, NaHCO3 2.4, HEPES 10, MgSO4·7H2O 0.82, Ca(NO3)2·4H2O 0.33, CaCl2·6H2O 0.41, at pH 7.4, and supplemented with 20 μg/ml of kanamycin, 100 unit/ml penicillin and 100 μg/ml streptomycin. All recordings were performed at 18° C. and cells were super-fused with medium containing in mM: NaCl 82.5, KCl 2.5, HEPES 5, CaCl2·2H2O, ·6H2O 1, pH 7.4.
Plasmids containing the RNAs of the human GABRA1/GABRB2/GABRG2 and GABRA4/GABRB3/GABRD genes were injected into oocytes using a proprietary automated injection device (Hogg el al., J. Neurosci. Methods, (2008) 169: 65-75). These genes encode for the α1β2γ2 and α4β3δ GABAA subunits respectively. Receptor expression was assessed using electrophysiology at least two days later. The ratio of RNA injection for α1β2γ2 was 1:1:1 and for α4β3δ was 5:1:5. Electrophysiological recordings were made using an automated process equipped with standard TEVC and data were captured and analyzed using a proprietary data acquisition and analysis software running under Matlab (Mathworks Inc.). The membrane potential of the oocytes was maintained at −80 mV throughout the experiments. To explore the effects of proprietary compounds, currents were evoked by applying 10 μM (α1β2γ2) or 3 μM (α4β3δ) GABA for 30 s. These concentrations approximated the EC50 concentration of GABA at each receptor subtype. Oocytes were then re-exposed to GABA again for 30 s. 15 s after beginning the GABA application, test article was co-applied at a concentration of 10 μM for 15 s. Potentiation of the peak current was assessed. Data was filtered at 10 Hz, captured at 100 Hz and analyzed using proprietary data acquisition and analysis software running under Matlab (Mathworks Inc.). For statistical analysis values were computed either with Excel (Microsoft) or Matlab (mathworks Inc.). To obtain mean measurements with standard deviations, all experiments were carried out using at least three cells.

[2] = target: [35S]-TBPS binding in rat brain cortical membranes; assay: Steroid inhibition of [35S]-TBPS binding, rat brain cortical membranes; settings: 3 nM [35S]-TBPS, in the presence of 5 μM GABA, read-out: 35S-TBPS Radioligand Displacement (IC50)
Procedure: TBPS binding assays using rat brain cortical membranes in the presence of 5 μM GABA has been described (Gee et al, J. Pharmacol. Exp. Ther. 1987, 241, 346-353; Hawkinson et al, Mol. Pharmacol. 1994, 46, 977-985; Lewin, A. H et al., Mol. Pharmacol. 1989, 35, 189-194).
Briefly, cortices are rapidly removed following decapitation of carbon dioxide-anesthetized Sprague-Dawley rats (200-250 g). The cortices are homogenized in 10 volumes of ice-cold 0.32 M sucrose using a glass/teflon homogenizer and centrifuged at 1500×g for 10 min at 4° C. The resultant supernatants are centrifuged at 10,000×g for 20 min at 4° C. to obtain the P2 pellets. The P2 pellets are resuspended in 200 mM NaCl/50 mM Na—K phosphate pH 7.4 buffer and centrifuged at 10,000×g for 10 min at 4° C. This washing procedure is repeated twice and the pellets are resuspended in 10 volumes of buffer. Aliquots (100 μL) of the membrane suspensions are incubated with 3 nM [^35S]-TBPS and 5 μL aliquots of test drug dissolved in dimethyl sulfoxide (DMSO) (final 0.5%) in the presence of 5 μM GABA. The incubation is brought to a final volume of 1.0 mL with buffer. Nonspecific binding is determined in the presence of 2 μM unlabeled TBPS and ranged from 15 to 25%. Following a 90 min incubation at room temp, the assays are terminated by filtration through glass fiber filters (Schleicher and Schuell No. 32) using a cell harvester (Brandel) and rinsed three times with ice-cold buffer. Filter bound radioactivity is measured by liquid scintillation spectrometry. Non-linear curve fitting of the overall data for each drug averaged for each concentration is done using Prism (GraphPad). […] The concentration of test compound producing 50% inhibition (IC50) of specific binding and the maximal extent of inhibition (Imax) are determined for the individual experiments with the same model used for the overall data and then the mean±SEM.s of the individual experiments are calculated.
Various compounds are or can be screened to determine their potential as modulators of [^35S]-TBPS binding in vitro. These assays are or can be performed in accordance with the above discussed procedures.

## COC[C@]12CC[C@@](C)(O)C[C@@H]1CC[C@H]1[C@@H]3CC[C@H](C(=O)Cn4nnc(C)n4)[C@@]3(C)CC[C@@H]12 [Compound 17]
[1]
  Emax at 10 µM: 1000 to 1500%
[2]
  IC50: > 500 nM

## COC[C@]12CC[C@@](C)(O)C[C@@H]1CC[C@H]1[C@@H]3CC[C@H](C(=O)Cn4cc(C)cn4)[C@@]3(C)CC[C@@H]12 [Compound 20]
[1]
  Emax at 10 µM: 500 to 1000%

## COC[C@]12CC[C@@](C)(O)C[C@@H]1CC[C@H]1[C@@H]3CC[C@H](C(=O)Cn4cnc(C)c4)[C@@]3(C)CC[C@@H]12 [Compound 23]
[1]
  Emax at 10 µM: 500 to 1000%
[2]
  IC50: 100 to 500 nM

## COC[C@]12CC[C@@](C)(O)C[C@@H]1CC[C@H]1[C@@H]3CC[C@H](C(=O)Cn4cc(S(C)(=O)=O)cn4)[C@@]3(C)CC[C@@H]12 [Compound 24]
[1]
  Emax at 10 µM: 500 to 1000%
[2]
  IC50: 100 to 500 nM

## CCOC[C@]12CC[C@@](C)(O)C[C@@H]1CC[C@H]1[C@@H]3CC[C@H](C(=O)Cn4nnc(C)n4)[C@@]3(C)CC[C@@H]12 [Compound 25]
[1]
  Emax at 10 µM: 500 to 1000%
[2]
  IC50: 10 to 50 nM

## COC[C@]12CC[C@@](C)(O)C[C@H]1CC[C@H]1[C@@H]3CC[C@H](C(=O)Cn4nccn4)[C@@]3(C)CC[C@@H]12 [Compound 31]
[1]
  Emax at 10 µM: 500 to 1000%
[2]
  IC50: 10 to 50 nM

## COC[C@]12CC[C@@](C)(O)C[C@@H]1CC[C@H]1[C@@H]3CC[C@H](C(=O)Cn4ncc5ncccc54)[C@@]3(C)CC[C@@H]12 [Compound 38]
[1]
  Emax at 10 µM: 500 to 1000%
[2]
  IC50: 50 to 100 nM

## COC[C@]12CC[C@@](C)(O)C[C@@H]1CC[C@H]1[C@@H]3CC[C@H](C(=O)Cn4nnc5ccccc54)[C@@]3(C)CC[C@@H]12 [Compound 39]
[1]
  Emax at 10 µM: 500 to 1000%
[2]
  IC50: 10 to 50 nM

## COC[C@]12CC[C@@](C)(O)C[C@@H]1CC[C@H]1[C@@H]3CC[C@H](C(=O)Cn4nnc5ccc(F)cc54)[C@@]3(C)CC[C@@H]12 [Compound 41]
[1]
  Emax at 10 µM: 1000 to 1500%
[2]
  IC50: 10 to 50 nM

## COC[C@]12CC[C@@](C)(O)C[C@@H]1CC[C@H]1[C@@H]3CC[C@H](C(=O)Cn4nnc5cc(F)ccc54)[C@@]3(C)CC[C@@H]12 [Compound 42]
[1]
  Emax at 10 µM: 500 to 1000%
[2]
  IC50: 10 to 50 nM

## COC[C@]12CC[C@@](C)(O)C[C@@H]1CC[C@H]1[C@@H]3CC[C@H](C(=O)Cn4cc5ccncc5n4)[C@@]3(C)CC[C@@H]12 [Compound 44]
[1]
  Emax at 10 µM: 1000 to 1500%
[2]
  IC50: 10 to 50 nM

## COC[C@]12CC[C@@](C)(O)C[C@@H]1CC[C@H]1[C@@H]3CC[C@H](C(=O)Cn4cnc5ccccc54)[C@@]3(C)CC[C@@H]12 [Compound 46]
[1]
  Emax at 10 µM: 1000 to 1500%
[2]
  IC50: 50 to 100 nM

## COC[C@]12CC[C@@](C)(O)C[C@@H]1CC[C@H]1[C@@H]3CC[C@H](C(=O)Cn4nc5cccc(F)c5n4)[C@@]3(C)CC[C@@H]12 [Compound 49]
[1]
  Emax at 10 µM: 500 to 1000%
[2]
  IC50: 10 to 50 nM

## COC[C@]12CC[C@@](C)(O)C[C@@H]1CC[C@H]1[C@@H]3CC[C@H](C(=O)Cn4nc5ccc(OC)cc5n4)[C@@]3(C)CC[C@@H]12 [Compound 50]
[1]
  Emax at 10 µM: 500 to 1000%
[2]
  IC50: 10 to 50 nM

## COC[C@]12CC[C@@](C)(O)C[C@@H]1CC[C@H]1[C@@H]3CC[C@H](C(=O)Cn4nnc5c(F)c(F)ccc54)[C@@]3(C)CC[C@@H]12 [Compound 53]
[1]
  Emax at 10 µM: 50 to 500%
[2]
  IC50: 50 to 100 nM

## COC[C@]12CC[C@@](C)(O)C[C@@H]1CC[C@H]1[C@@H]3CC[C@H](C(=O)Cn4nnc5c(F)cc(F)cc54)[C@@]3(C)CC[C@@H]12 [Compound 56]
[1]
  Emax at 10 µM: 50 to 500%
[2]
  IC50: 50 to 100 nM

## COC[C@]12CC[C@@](C)(O)C[C@@H]1CC[C@H]1[C@@H]3CC[C@H](C(=O)Cn4nnc5c(Cl)cccc54)[C@@]3(C)CC[C@@H]12 [Compound 60]
[1]
  Emax at 10 µM: 50 to 500%
[2]
  IC50: 10 to 50 nM

## COC[C@]12CC[C@@](C)(O)C[C@@H]1CC[C@H]1[C@@H]3CC[C@H](C(=O)Cn4nc5cccc(Cl)c5n4)[C@@]3(C)CC[C@@H]12 [Compound 61]
[1]
  Emax at 10 µM: 500 to 1000%
[2]
  IC50: < 10 nM

## COC[C@]12CC[C@@](C)(O)C[C@@H]1CC[C@H]1[C@@H]3CC[C@H](C(=O)Cn4nnc5c(OC)c(OC)ccc54)[C@@]3(C)CC[C@@H]12 [Compound 63]
[1]
  Emax at 10 µM: 500 to 1000%
[2]
  IC50: 10 to 50 nM

## COC[C@]12CC[C@@](C)(O)C[C@@H]1CC[C@H]1[C@@H]3CC[C@H](C(=O)Cn4nc5cc(OC)cc(OC)c5n4)[C@@]3(C)CC[C@@H]12 [Compound 65]
[1]
  Emax at 10 µM: 500 to 1000%
[2]
  IC50: < 10 nM

## COC[C@]12CC[C@@](C)(O)C[C@H]1CC[C@H]1[C@@H]3CC[C@H](C(=O)Cn4nc5ccc(F)cc5n4)[C@@]3(C)CC[C@@H]12 [Compound 73]
[1]
  Emax at 10 µM: 500 to 1000%
[2]
  IC50: < 10 nM

## COC[C@]12CC[C@@](C)(O)C[C@H]1CC[C@H]1[C@@H]3CC[C@H](C(=O)Cn4nnc5ccc(F)cc54)[C@@]3(C)CC[C@@H]12 [Compound 74]
[1]
  Emax at 10 µM: 500 to 1000%
[2]
  IC50: < 10 nM

## COC[C@]12CC[C@@](C)(O)C[C@H]1CC[C@H]1[C@@H]3CC[C@H](C(=O)Cn4nnc5cc(F)ccc54)[C@@]3(C)CC[C@@H]12 [Compound 75]
[1]
  Emax at 10 µM: 500 to 1000%
[2]
  IC50: 10 to 50 nM

## COC[C@]12CC[C@@](C)(O)C[C@H]1CC[C@H]1[C@@H]3CC[C@H](C(=O)Cn4nnc5ccc(F)c(F)c54)[C@@]3(C)CC[C@@H]12 [Compound 77]
[1]
  Emax at 10 µM: 1000 to 1500%
[2]
  IC50: < 10 nM

## COC[C@]12CC[C@@](C)(O)C[C@H]1CC[C@H]1[C@@H]3CC[C@H](C(=O)Cn4cnc5ccccc54)[C@@]3(C)CC[C@@H]12 [Compound 80]
[1]
  Emax at 10 µM: 500 to 1000%
[2]
  IC50: 10 to 50 nM

## COC[C@]12CC[C@@](C)(O)C[C@H]1CC[C@H]1[C@@H]3CC[C@H](C(=O)Cn4nnc5cccc(F)c54)[C@@]3(C)CC[C@@H]12 [Compound 81]
[1]
  Emax at 10 µM: 500 to 1000%
[2]
  IC50: 10 to 50 nM

## COC[C@]12CC[C@@](C)(O)C[C@H]1CC[C@H]1[C@@H]3CC[C@H](C(=O)Cn4nc5cccc(F)c5n4)[C@@]3(C)CC[C@@H]12 [Compound 83]
[1]
  Emax at 10 µM: 1000 to 1500%
[2]
  IC50: < 10 nM

## COC[C@]12CC[C@@](C)(O)C[C@@H]1CC[C@H]1[C@@H]3CC[C@H](C(=O)Cn4nc5cc(F)c(F)cc5n4)[C@@]3(C)CC[C@@H]12 [Compound 97]
[1]
  Emax at 10 µM: 500 to 1000%
[2]
  IC50: 10 to 50 nM

## COC[C@]12CC[C@@](C)(O)C[C@@H]1CC[C@H]1[C@@H]3CC[C@H](C(=O)Cn4nc5cc(Cl)cnc5n4)[C@@]3(C)CC[C@@H]12 [Compound 99]
[1]
  Emax at 10 µM: 1000 to 1500%
[2]
  IC50: 10 to 50 nM

## COC[C@]12CC[C@@](C)(O)C[C@@H]1CC[C@H]1[C@@H]3CC[C@H](C(=O)Cn4nnc5cc(Cl)cnc54)[C@@]3(C)CC[C@@H]12 [Compound 100]
[1]
  Emax at 10 µM: 500 to 1000%
[2]
  IC50: 100 to 500 nM
